{
  "source": "patent US11641856B2",
  "about": "(SMITH & NEPHEW, INC., priority 2015, dated 2023)",
  "data": [
    {"tested_on": "S. aureus biofilm", "assay": "In-vitro S. aureus biofilm model, treatment with oils of various polarity", "assay_type": "cell-based", "details": "oils with log P within vs outside 0.5 to 2.0", "values": [
      {"compound": "O=C(O)c1ccccc1", "note": "[Benzoic Acid]", "antibacterial activity against biofilms (log reduction of bacteria vs. moist control, FIG. 1)": "exhibited some antibacterial activity against biofilms"},
      {"compound": "OCc1ccccc1", "note": "[Benzyl Alcohol]", "antibacterial activity against biofilms (log reduction of bacteria vs. moist control, FIG. 1)": "exhibited some antibacterial activity against biofilms"},
      {"compound": "CCOC(C)=O", "note": "[Ethyl Acetate]", "antibacterial activity against biofilms (log reduction of bacteria vs. moist control, FIG. 1)": "exhibited some antibacterial activity against biofilms"},
      {"compound": "CCOC(=O)c1cc(O)c(O)c(O)c1", "note": "[Ethyl Gallate]", "antibacterial activity against biofilms (log reduction of bacteria vs. moist control, FIG. 1)": "exhibited some antibacterial activity against biofilms"},
      {"compound": "CCCCCCCCCCCC(=O)OCC(O)CO", "note": "(centres unmarked) [MONOMULS®, glyceryl monolaurate]", "antibacterial activity against biofilms (log reduction of bacteria vs. moist control, FIG. 1)": "did not exhibit very much antimicrobial activity against biofilms"},
      {"compound": "CCCOC(=O)c1cc(O)c(O)c(O)c1", "note": "[Propyl Gallate]", "antibacterial activity against biofilms (log reduction of bacteria vs. moist control, FIG. 1)": "exhibited some antibacterial activity against biofilms"},
      {"compound": "Oc1cccc(O)c1", "note": "[Resorcinol]", "antibacterial activity against biofilms (log reduction of bacteria vs. moist control, FIG. 1)": "exhibited some antibacterial activity against biofilms"},
      {"compound": "CC(=O)OCC(COC(C)=O)OC(C)=O", "note": "[glyceryl triacetate]", "antibacterial activity against biofilms (log reduction of bacteria vs. moist control, FIG. 1)": "did not exhibit very much antimicrobial activity against biofilms"},
      {"compound": "CCCCCCCCCCCCCC(=O)OC(C)C", "note": "[isopropyl myristate]", "antibacterial activity against biofilms (log reduction of bacteria vs. moist control, FIG. 1)": "did not exhibit very much antimicrobial activity against biofilms"},
      {"compound": "COC(=O)c1ccccc1", "note": "[methyl benzoate]", "antibacterial activity against biofilms (log reduction of bacteria vs. moist control, FIG. 1)": "did not exhibit very much antimicrobial activity against biofilms"},
      {"compound": "CCCCCCCC/C=C\\CCCCCCCC(=O)O", "note": "[oleic acid]", "antibacterial activity against biofilms (log reduction of bacteria vs. moist control, FIG. 1)": "did not exhibit very much antimicrobial activity against biofilms"},
      {"compound": "diethyl acetate", "antibacterial activity against biofilms (log reduction of bacteria vs. moist control, FIG. 1)": "did not exhibit very much antimicrobial activity against biofilms"}
    ]},
    {"tested_on": "not given", "assay": "not given", "details": "reference standards with known log P values used for HPLC calibration; cited from earlier work", "values": [
      {"compound": "O=C(C=Cc1ccccc1)OCc1ccccc1", "note": "[Benzyl cinnamate]", "log P": 4.06},
      {"compound": "CCCCOC(=O)CCCCCCCCC(=O)OCCCC", "note": "[Dibutyl sebacate]", "log P": 6.3}
    ]}
  ]
}
